Usually inhibition stands for the change of the read-out against control, counted positive when it falls. One may read the IC50 as the midpoint of a concentration-inhibition curve.

Active and inactive are the calls of the source. The rule behind the calls is not given here. A value given as a limit tells only on which side of the number the result lay.

The target of data set [1] is T1, Indoleamine 2,3-dioxygenase 2 (Mus musculus) (UniProt Q8R0V5).
T1 sequence (whole entry): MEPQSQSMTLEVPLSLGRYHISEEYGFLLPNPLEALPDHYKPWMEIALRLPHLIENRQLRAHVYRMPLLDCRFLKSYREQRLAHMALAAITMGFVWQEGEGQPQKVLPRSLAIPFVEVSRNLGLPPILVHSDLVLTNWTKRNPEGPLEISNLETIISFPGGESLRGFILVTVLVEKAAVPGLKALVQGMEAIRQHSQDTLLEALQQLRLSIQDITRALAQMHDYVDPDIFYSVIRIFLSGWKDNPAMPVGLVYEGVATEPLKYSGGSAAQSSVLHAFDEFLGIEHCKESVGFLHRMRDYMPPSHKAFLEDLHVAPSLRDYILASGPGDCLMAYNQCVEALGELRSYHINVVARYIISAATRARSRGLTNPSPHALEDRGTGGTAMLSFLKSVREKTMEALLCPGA
As to conditions: HEK-293T, at 20 µM.
Description: (§1) Inhibition of mouse Ido2 transfected in HEK293T cells using L-tryptophan as substrate assessed as kynurenine formation at 20 uM after 45 mins by spectrophotometric analysis relative to control

Data set [2] concerns the target Tryptophan 2,3-dioxygenase (Mus musculus) (UniProt P48776). Description: Inhibition of mouse Tdo2 transfected in HEK293T cells using L-tryptophan as substrate assessed as kynurenine formation at 100 uM after 45 mins by spectrophotometric analysis relative to control. In kind it is cell-based. As to conditions: HEK-293T.
The target of data set [3] is Indoleamine 2,3-dioxygenase 1 (Mus musculus, UniProt P28776). The data set can be described thus: Inhibition of mouse Ido1 transfected in HEK293T cells using L-tryptophan as substrate assessed as kynurenine formation after 45 mins by spectrophotometric analysis. In kind it is cell-based, HEK-293T.
Data set [4] deals with T2, Indoleamine 2,3-dioxygenase 2 (Mus musculus, UniProt Q8R0V5).
T2 sequence (Q8R0V5 whole entry): T1 sequence (whole entry)
The data set can be described thus: Inhibition of mouse Ido2 transfected in HEK293T cells using L-tryptophan as substrate assessed as kynurenine formation after 45 mins by spectrophotometric analysis. In kind it is cell-based, HEK-293T.

Data set [5] relates to HEK-293T. Description: Cytotoxicity against HEK293T cells assessed as decrease in cell viability at 25 uM after 24 hrs by trypan blue exclusion assay. In kind it is cell-based. As to conditions: human.
The species entered for data set [6] is Mus musculus. Description: Selectivity ratio of IC50 for mouse Ido1 to IC50 for mouse Ido2.
The target of data set [7] is Indoleamine 2,3-dioxygenase 1 (Mus musculus) (UniProt P28776). Description: Inhibition of mouse Ido1 transfected in HEK293T cells using L-tryptophan as substrate assessed as residual activity at 100 uM after 45 mins by spectrophotometric analysis relative to control. It counts as cell-based. As to conditions: HEK-293T.
Data set [8] addresses T1, Indoleamine 2,3-dioxygenase 2 (Mus musculus). The data set can be described thus: Inhibition of mouse Ido2 transfected in HEK293T cells using L-tryptophan as substrate assessed as assessed as residual activity at 100 uM after 45 mins by spectrophotometric analysis relative to control. In kind it is cell-based. As to conditions: HEK-293T.
Data set [9] has as its target Indoleamine 2,3-dioxygenase 2 (Mus musculus) (UniProt Q8R0V5). As to conditions: HEK-293T, at 20 µM. The source holds these as a separate data set.
Description: as §1

Tryptophan 2,3-dioxygenase (Mus musculus), sequence (P48776 whole entry): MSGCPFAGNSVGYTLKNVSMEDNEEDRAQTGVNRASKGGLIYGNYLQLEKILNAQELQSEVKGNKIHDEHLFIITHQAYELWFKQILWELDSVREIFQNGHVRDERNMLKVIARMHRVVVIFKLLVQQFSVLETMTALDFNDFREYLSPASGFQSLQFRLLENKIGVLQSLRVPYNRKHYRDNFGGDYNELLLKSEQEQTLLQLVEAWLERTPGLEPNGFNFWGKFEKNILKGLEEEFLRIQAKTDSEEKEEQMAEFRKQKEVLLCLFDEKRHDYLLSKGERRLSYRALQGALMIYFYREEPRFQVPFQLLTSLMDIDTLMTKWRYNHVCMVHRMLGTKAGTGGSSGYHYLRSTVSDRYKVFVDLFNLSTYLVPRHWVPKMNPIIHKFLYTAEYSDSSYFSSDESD
Indoleamine 2,3-dioxygenase 1, sequence (P28776 whole entry): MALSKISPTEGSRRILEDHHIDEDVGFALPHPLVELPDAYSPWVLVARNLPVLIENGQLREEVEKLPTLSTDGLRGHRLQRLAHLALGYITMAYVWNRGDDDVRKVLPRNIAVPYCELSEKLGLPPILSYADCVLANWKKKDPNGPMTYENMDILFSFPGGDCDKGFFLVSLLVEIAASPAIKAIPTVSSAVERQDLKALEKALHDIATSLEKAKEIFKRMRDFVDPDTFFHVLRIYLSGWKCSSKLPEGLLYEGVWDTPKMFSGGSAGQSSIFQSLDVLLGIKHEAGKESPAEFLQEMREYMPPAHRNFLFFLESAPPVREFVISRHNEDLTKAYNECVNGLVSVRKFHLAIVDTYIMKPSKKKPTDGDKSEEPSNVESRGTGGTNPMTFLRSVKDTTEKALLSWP
Indoleamine 2,3-dioxygenase 1 (Mus musculus), sequence (P28776 whole entry, looked up): as the sequence (P28776 whole entry) above

Consider `CC#CCC(C)[C@H](O)/C=C/[C@@H]1[C@H]2C/C(=C/CCCC(=O)O)C[C@H]2C[C@H]1O` (some centres not stated), for which the inhibition in data set [1] was over 55%.

The compound `CC(C)C[C@H]1C(=O)N2CCC[C@H]2[C@]2(O)O[C@](NC(=O)[C@@H]3C=C4c5cccc6[nH]c(Br)c(c56)C[C@H]4N(C)C3)(C(C)C)C(=O)N12` showed an inhibition in [1] of over 55%.

As to `CC(C)OC(=O)C(C)(C)Oc1ccc(C(=O)c2ccc(Cl)cc2)cc1`, the inhibition in data set [1] is over 55%.

`CC(c1cc2ccccc2s1)N(O)C(N)=O` (configuration not stated) returned an inhibition in [1] of over 55%.

Take `CC1=C(C)C(=O)C(CCCCC#CCCCC#CCO)=C(C)C1=O`: in data set [1], the inhibition was over 55%.

In data set [1], `CCCCCN(CCCCC)C(=O)C(CCC(=O)O)NC(=O)c1ccc(Cl)c(Cl)c1` (configuration not stated) returned an inhibition of over 55%.

Turning to `CCCSc1ccc2[nH]c(NC(=O)OC)nc2c1`, the inhibition in data set [1] was over 55%.

In the case of `CCC[S+]([O-])c1ccc2[nH]c(NC(=O)OC)nc2c1` (configuration not stated), in [1], the inhibition is over 55%.

In turn, `CCCc1nc2c(C)cc(-c3nc4ccccc4n3C)cc2n1Cc1ccc(-c2ccccc2C(=O)O)cc1` yielded an inhibition in data set [1] of over 55%.

Compound `CCN(CC)C(=S)SSC(=S)N(CC)CC` yielded an inhibition in data set [1] of over 55%.

In turn, `CCN(CC)CCCC(C)Nc1c2ccc(Cl)cc2nc2ccc(OC)cc12` (configuration not stated) displayed an inhibition in [1] of over 55%.

In the case of `CCOC(=O)C1=C(C)NC(C)=C(C(=O)OC)C1c1cccc(Cl)c1Cl` (configuration not stated), the inhibition in data set [1] was over 55%.

For the compound `CCOC(=O)C1=C(C)NC(C)=C(C(=O)OC)C1c1cccc([N+](=O)[O-])c1` (configuration not stated), the inhibition in [1] is over 55%.

Regarding `CCOC(=O)C1=C(C)NC(C)=C(C(=O)OCC)C1c1ccccc1/C=C/C(=O)OC(C)(C)C`, in data set [1], the inhibition is over 55%.

`CC[C@@H](C(N)=O)N1CCCC1=O` displayed an inhibition in [1] of over 55%.

`CN1C[C@H](C(=O)N[C@]2(C)O[C@@]3(O)[C@@H]4CCCN4C(=O)[C@H](Cc4ccccc4)N3C2=O)C=C2c3cccc4[nH]cc(c34)C[C@H]21`: the inhibition in [1] was over 55%.

`COC(=O)C1=C(C)NC(C)=C(C(=O)OCC(C)C)C1c1ccccc1[N+](=O)[O-]` (configuration not stated) gave an inhibition in data set [1] of over 55%.

In turn, `COC(=O)C1=C(C)NC(C)=C(C(=O)OCCN(C)Cc2ccccc2)C1c1cccc([N+](=O)[O-])c1` (configuration not stated) returned an inhibition in [1] of over 55%.

For the compound `COC(=O)Nc1nc2cc(C(=O)c3ccccc3)ccc2[nH]1`, in data set [1], the inhibition was over 55%.

In the case of `COC(=O)Nc1nc2cc([S+]([O-])c3ccccc3)ccc2[nH]1` (configuration not stated), in data set [1], the inhibition was over 55%.

As to `COCCOC(=O)C1=C(C)NC(C)=C(C(=O)OC(C)C)C1c1cccc([N+](=O)[O-])c1` (configuration not stated), in data set [1], the inhibition is over 55%.

Consider `COCCOC(=O)C1=C(C)NC(C)=C(C(=O)OC/C=C/c2ccccc2)C1c1cccc([N+](=O)[O-])c1` (configuration not stated), for which the inhibition in [1] is over 55%.

`COc1cc2c(cc1OC)-c1c/c(=N\c3c(C)cc(C)cc3C)n(C)c(=O)n1CC2` yielded an inhibition in [1] of over 55%.

In turn, `COc1cc2nc(N(C)CCCNC(=O)C3CCCO3)nc(N)c2cc1OC` (configuration not stated) gave an inhibition in data set [1] of over 55%.

Take `COc1ccccc1OCCNCC(O)COc1cccc2[nH]c3ccccc3c12` (configuration not stated): in data set [1], the inhibition was over 55%.

`COc1ccnc(C[S+]([O-])c2nc3cc(OC(F)F)ccc3[nH]2)c1OC` (configuration not stated): in [2], the inhibition result is “inactive”.

Turning to `C[C@@H]1CC[C@H]2[C@@H](C)C(=O)O[C@@H]3O[C@@]4(C)CC[C@@H]1[C@]32OO4`, the inhibition in data set [1] is over 55%.

Regarding `C[C@H](CS)C(=O)N1CCC[C@H]1C(=O)O`, in data set [1], the inhibition was over 55%.

In data set [1], `Clc1ccc(C(Cn2ccnc2)OCc2ccsc2Cl)c(Cl)c1` (configuration not stated) gave an inhibition of over 55%.

Consider `Clc1ccc(C(Cn2ccnc2)OCc2csc3c(Cl)cccc23)c(Cl)c1` (configuration not stated), for which the inhibition in [1] is over 55%.

Consider `Clc1ccc(CO/N=C(\Cn2ccnc2)c2ccc(Cl)cc2Cl)c(Cl)c1`, for which the inhibition in data set [1] is over 55%.

In [1], `NC[C@H]1CC[C@H](C(=O)O)CC1` gave an inhibition of over 55%.

Regarding `O=C(O)Cc1sc(-c2ccccc2)nc1-c1ccc(Cl)cc1`, the inhibition in [1] is over 55%.

As for `O=C1Nc2ccc(Cl)cc2[C@@](C#CC2CC2)(C(F)(F)F)O1`, the inhibition in data set [1] is over 55%.

Compound `OCCN(CCO)c1nc(N2CCCCC2)c2nc(N(CCO)CCO)nc(N3CCCCC3)c2n1` had an inhibition in data set [1] of over 55%.

With `c1ccc(-c2ccc(C(c3ccccc3)n3ccnc3)cc2)cc1` (configuration not stated), the inhibition in [1] is over 55%.

As for `Clc1ccccc1C(c1ccccc1)(c1ccccc1)n1ccnc1` [CLOTRIMAZOLE], the IC50 in [3] was 51.6 µM; in data set [4], 5.9 µM. Also, the inhibition in data set [2] is over 95%.

For `Clc1ccc(COC(Cn2ccnc2)c2ccc(Cl)cc2Cl)cc1` (configuration not stated) [ECONAZOLE], the IC50 worked out at 11.2 µM in data set [3] and 7.6 µM in data set [4]. In addition, the inhibition in data set [2] was over 95%.

Consider `CC1=C(/C=C/C(C)=C/C=C/C(C)=C/C(=O)Nc2ccc(O)cc2)C(C)(C)CCC1` [FENRETINIDE], for which the inhibition in data set [1] was over 55%; in [2], 32%. For the same compound, the concentration for half-maximal inhibition (IC50) came out at 59.9 µM in data set [3] and 18.7 µM in data set [4]. For the same compound, the Activity entry in data set [5] is reported as “Non-toxic”.

Regarding `Cc1c(OCC(F)(F)F)ccnc1C[S+]([O-])c1nc2ccccc2[nH]1` (configuration not stated) [LANSOPRAZOLE], the IC50 in [3] worked out at 94 µM; in data set [4], 8.2 µM. Moreover, the Activity entry in data set [5] is on record as “Non-toxic”. In addition, the inhibition in data set [2] is under 20%.

As for `Clc1ccc(COC(Cn2ccnc2)c2ccc(Cl)cc2Cl)c(Cl)c1` (configuration not stated) [MICONAZOLE], the inhibition was over 55% in data set [1] and over 95% in data set [2]. The IC50 turned out to be 17.8 µM in data set [3] and 6.7 µM in data set [4]. The Activity entry in data set [5] is listed as “Non-toxic”.

Take `COC(=O)C1=C(C)NC(C)=C(C(=O)OC)C1c1ccccc1[N+](=O)[O-]` [NIFEDIPINE]: the values for the inhibition in [1] and in [2] were over 55% and under 20%, respectively. Besides, the IC50 in data set [3] is 46 µM; in [4] it was 1.5 µM. Moreover, in data set [6], the Ratio IC50 was determined as 30.

Consider `COc1ccnc(C[S+]([O-])c2nc3ccc(OC(F)F)cc3[nH]2)c1OC` (configuration not stated) [PANTOPRAZOLE], for which the IC50 in data set [3] was 109 µM; in data set [4], 12.6 µM.

Turning to `CCCc1nn(C)c2c(=O)[nH]c(-c3cc(S(=O)(=O)N4CCN(C)CC4)ccc3OCC)nc12` [SILDENAFIL], the inhibition in [1] is over 55%. The results for the IC50 in data set [3] and in data set [4] were over 100 µM and 4.5 µM, respectively. Further, in data set [2], the inhibition entry is “inactive”.

In the case of `Clc1ccc(CSC(Cn2ccnc2)c2ccc(Cl)cc2Cl)cc1` (configuration not stated) [SULCONAZOLE], the figures for the IC50 in [3] and in data set [4] were 29.3 µM and 10.1 µM, respectively. Further, in data set [2], the inhibition was over 95%.

In turn, `COc1ccc2[nH]c([S+]([O-])Cc3ncc(C)c(OC)c3C)nc2n1` (configuration not stated) [TENATOPRAZOLE] had an inhibition in [1] of over 55%. The IC50 in data set [3] is over 100 µM; in data set [4], 1.8 µM. Besides, the inhibition entry in data set [2] is “inactive”.

On to `CC1=C(/C=C/C(C)=C/C=C/C(C)=C/C(=O)O)C(C)(C)CCC1` [TRETINOIN], for which the inhibition in data set [1] is over 55%. Further, the Activity in data set [7] was 100%; in data set [8] it was under 5%. Also, the IC50 in data set [3] stood at 301 µM; in data set [4], 28.7 µM. The inhibition result in data set [2] is “inactive”. Further, the Ratio IC50 in data set [6] amounted to 10.

Turning to `Cc1c(C)c2c(c(C)c1O)CCC(C)(COc1ccc(CC3SC(=O)NC3=O)cc1)O2` (configuration not stated) [TROGLITAZONE], the values for the inhibition in [1] and in data set [2] were over 55% and under 20%, respectively. The IC50 in data set [3] was found to be 61 µM; in data set [4], 4.5 µM. Besides, in [6], the Ratio IC50 turned out to be 14.

With AURANOFIN, in data set [9], the inhibition is over 55%.

Values taken from ChEMBL document CHEMBL2203204, “Identification of selective inhibitors of indoleamine 2,3-dioxygenase 2” (Bioorg Med Chem Lett, 2012).
